Counter-ions that a name gives are not always drawn.
What was measured:
HL60 cells = conditions: read-out: IC50, growth of HL60 cells; cited from earlier work
pause release = assay: Inhibition of pause release; type: cell-based
From the text: It has undergone clinical trials in a number of different cancer types including various solid tumors and leukemias. […] Without wishing to be bound by theory, this may help counteract the effects of Myc overexpression, and this may be the basis for the therapeutic effect of flavopiridol on some tumors.

[1] = system: various tumor cells lines; conditions: cited from earlier work
xenograft models = conditions: in vivo; cited from earlier work
c-Myc [2] = target: T1, c-Myc (Homo sapiens, UniProt P01106); conditions: cited from earlier work
T1 sequence (P01106 whole entry): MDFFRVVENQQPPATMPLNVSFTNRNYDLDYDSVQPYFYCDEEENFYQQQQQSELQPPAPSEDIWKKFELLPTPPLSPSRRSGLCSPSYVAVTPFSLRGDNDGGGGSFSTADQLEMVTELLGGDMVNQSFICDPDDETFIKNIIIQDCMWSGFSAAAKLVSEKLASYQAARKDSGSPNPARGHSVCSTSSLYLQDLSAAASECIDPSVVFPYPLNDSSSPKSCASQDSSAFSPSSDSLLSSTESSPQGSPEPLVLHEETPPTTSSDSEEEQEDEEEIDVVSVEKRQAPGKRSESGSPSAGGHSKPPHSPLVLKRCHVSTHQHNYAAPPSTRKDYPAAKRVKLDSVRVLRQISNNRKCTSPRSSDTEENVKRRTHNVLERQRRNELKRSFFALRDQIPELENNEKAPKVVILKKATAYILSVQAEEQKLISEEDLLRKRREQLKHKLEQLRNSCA

MM.1S cells = assay: JQ1 sensitivity of MM.1S cells by measurement of ATP levels (CellTiterGlo); type: cell-based, human
From the text: (§1) Schematic depicting the experimental procedure.

c-MYC [3] = assay: Western blot of c-MYC protein levels after JQ1 or DMSO treatment; type: cell-based, human; conditions: MM.1S cells, 6 hours of JQ1 treatment
From the text: as §1

P-TEFb = assay: ChIP-Seq of P-TEFb occupancy in MM.1S cells after JQ1 treatment; type: cell-based, human
From the text: FIGS. 9(A)-9(C) illustrate that loss of P-TEFb accompanies BRD4 inhibition. (FIG. 9A) P-TEFb generally occupies enhancers bound by Mediator and BRD4 in MM1.S cells. […] (FIG. 9C) P-TEFb is disproportionally lost at super-enhancers.
BRD4 recruits the active form of the positive transcription elongation factor P-TEFb, which stimulates pause release and transcription elongation (Bisgrove et al., 2007; Hargreaves et al., 2009; Jang et al., 2005; Jiang et al., 1998; Wu and Chiang, 2007; Wu et al., 2003; Yang et al., 2005). […] Furthermore, P-TEFb was disproportionately lost at super-enhancers when compared to normal enhancers (FIG. 9C). We conclude that BET bromodomain inhibition of BRD4 leads to loss of P-TEFb at enhancers and transcription start sites, and that the inhibition has more profound effects at super-enhancers than at average enhancers.

RNA Polymerase II = assay: ChIP-seq of RNA Polymerase II after JQ1 treatment (transcription elongation); type: cell-based, human; conditions: MM.1S cells
From the text: (FIG. 10B) Genes associated with super-enhancers show a dramatic defect in elongation.

c-Myc [4] = target: T1, c-Myc; conditions: cited from earlier work; remark: listed apart in the source
c-Myc/Max = c-Myc/Max (Homo sapiens, UniProt P01106); conditions: cited from earlier work
Chain of c-Myc/Max (P01106 whole entry): as above

c-Myc [5] = target: T1, c-Myc; conditions: at concentrations of 10-40 μM; cited from earlier work
[6] = system: chicken embryo fibroblasts; conditions: cited from earlier work

CCc1ccc(/C=C2/SC(=S)NC2=O)cc1 [10058-F4]
IC50 (HL60 cells): 49 µM

CN1CC[C@H](c2c(O)cc(O)c3c(=O)cc(-c4ccccc4Cl)oc23)[C@H](O)C1 [Flavopiridol, (−)-2-(2-Chlorophenyl)-5,7-dihydroxy-8-[(3S,4R)-3-hydroxy-1-methyl-4-piperidinyl]-4H-1-benzopyran-4-one hydrochloride]
pause release (pause release): inhibit pause release
antitumor activity against various tumor cells lines [1]: antitumor activity
tumor growth in xenograft models (xenograft models): inhibit tumor growth

CNC(=O)c1cc2c(cc1C(=O)NC[C@H](NS(=O)(=O)c1c(Cl)sc(Cl)c1Br)C(=O)OC(C)(C)C)CN(C(=O)CCC1CCN(C(=O)OC(C)(C)C)CC1)C2 [IIA6B17]
inhibition of c-Myc-dependent transcription in a reporter gene assay (c-Myc [2]): inhibit

Cc1sc2c(c1C)C(c1ccc(Cl)cc1)=N[C@@H](CC(=O)OC(C)(C)C)c1nnc(C)n1-2 [JQ1]
MM1.S cell viability, as measured by ATP levels (MM.1S cells; 6 hour treatments, various concentrations of JQ1): little effect
antiproliferative effect on MM1.S cells (MM.1S cells; later time points): dramatic antiproliferative effect
MYC protein levels (c-MYC [3]): significantly depleted
levels of P-TEFb at sites where there was a reduction in BRD4 (P-TEFb): reduce the levels of P-TEFb
transcriptional elongation (PolII in the gene body and 3' transcription termination regions) (RNA Polymerase II): global defect in transcriptional elongation

CN(C)CCCNc1cc(O)c2c(c1O)C(=O)c1ccccc1C2=O [MYRA-A]
Myc-regulated gene expression (c-Myc [4]): inhibit
apoptosis (c-Myc [4]): induce apoptosis in a Myc-dependent manner

COc1ccc(CNC(=O)c2cc3nc(-c4cccs4)cc(C(F)(F)F)n3n2)cc1 [Mycro1]
specificity for c-Myc-dependent transcription over transcription mediated by AP-1 family proteins (c-Myc [2]): weak-to-moderate specificity
inhibition of c-Myc/Max dimerization (c-Myc/Max): inhibit

O=C(NCc1cccs1)c1cc2nc(-c3cccs3)cc(C(F)(F)F)n2n1 [Mycro2]
specificity for c-Myc-dependent transcription over transcription mediated by AP-1 family proteins (c-Myc [2]): weak-to-moderate specificity
inhibition of c-Myc/Max dimerization (c-Myc/Max): inhibit

CCOC(=O)c1cnn(-c2ccccc2)c1NC(=O)c1cc2nc(-c3cccs3)cc(C(F)(F)F)n2n1 [Mycro3]
inhibition of c-Myc/Max dimerization (c-Myc/Max): inhibited
selectivity in vitro of inhibition of c-Myc/Max dimerization and DNA binding (c-Myc/Max; in vitro): very good selectivity
potency and selectivity against c-Myc in cellular assays (c-Myc [5]): good potency and selectivity

COc1ccc(CN(C(=O)c2ccccn2)C(C(=O)NC2CCCCC2)c2ccc3cc(OCC(=O)OC(C)(C)C)ccc3c2)cc1 (stereo not shown) [NY2267]
inhibition of c-Myc-dependent oncogenic transformation of chicken embryo fibroblasts ([6]; at 20 μM): strongly inhibited
selectivity over transformation mediated by v-Src or v-Jun [6]: showed selectivity
discrimination between transcription mediated by c-Jun and c-Myc (c-Myc [2]): did not discriminate

From patent US10160977B2, “Super-enhancers and methods of use thereof” (Whitehead Institute for Biomedical Research, priority 2012, dated 2018)
